Measurements as given in patent US9409876B2, “Bradykinin receptor antagonists and pharmaceutical compositions containing them” (DOMPE' FARMACEUTICI S.P.A., priority 2013, dated 2016).

Tests used:
BKB1 receptors = biological target: T1, BKB1 receptors (Homo sapiens, UniProt P46663); assay: Calcium Mobilization Assay (FLIPR), IMR-90 cells, BKB1; type: cell-based; details: IL-1 induced IMR-90 cells, agonist desArg10-kallidin (DAKD)
T1 construct: Human (IMR-90) lung fibroblast cells expressing native BKB1 receptors; endogenous in cells; host or cells: IMR-90 human lung fibroblasts, treated with human IL-1 to up-regulate BKB1
T1 sequence (P46663 1-353): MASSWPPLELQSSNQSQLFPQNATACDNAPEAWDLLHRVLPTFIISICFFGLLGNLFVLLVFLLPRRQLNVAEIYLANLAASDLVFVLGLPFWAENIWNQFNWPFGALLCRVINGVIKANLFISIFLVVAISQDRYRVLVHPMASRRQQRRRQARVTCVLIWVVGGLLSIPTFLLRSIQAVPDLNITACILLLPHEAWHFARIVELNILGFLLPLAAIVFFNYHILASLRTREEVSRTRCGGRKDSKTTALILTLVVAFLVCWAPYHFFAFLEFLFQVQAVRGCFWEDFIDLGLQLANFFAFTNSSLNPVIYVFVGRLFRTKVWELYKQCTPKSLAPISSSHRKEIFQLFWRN

[1] = test system: CCI-induced mechanical allodynia; assay: Chronic constriction model of pain, mechanical allodynia; type: in vivo, rat
Method: An evaluation of the in vivo activity of compound 8 (R,R) was performed by testing the inhibition potential in mechanical allodynia using the chronic constriction model of pain.
Male Sprague-Dawley (SD) derived rats weighing 180±20 g (at arrival) were provided by BioLasco Taiwan (under Charles River Laboratories Technology Licensee). Space allocation for 5 animals per cage was 45×23×21 cm and maintained in a controlled temperature (20-24° C.) and humidity (50%-80%) environment with 12 hours light/dark cycles for at least three days in Ricerca Biosciences, LLC (Taipei, Taiwan) Laboratory prior to use. Free access to standard lab chow for rats [MF-18 (Oriental Yeast Co., Ltd., Japan)] and tap water was granted. All aspects of this work including housing, experimentation and disposal of animals were performed in general accordance with the Guide for the Care and Use of Laboratory Animals (National Academy Press, Washington, D. C., 2010).
Neuropathic pain behavior was induced by ligation of the sciatic nerve according to the method described by Bennett and Xie [Bennett G. J. and Xie Y. K. A peripheral mononeuropathy in rat that produces disorders of pain sensation like those seen in man, Pain, (1988) 33:87-107]. Briefly, rats were anaesthetized under pentobarbital (50 mg/kg, 5 mL/kg, IP) anesthesia and the sciatic nerve was exposed at mid-thigh level. […]
The rats had access to food and water up to the time of the experiment, and then were placed under inverted Plexiglas cages on a wire mesh rack and allowed to acclimate for 20 to 30 minutes. Allodynia was evaluated using the Chaplin “up/down” method using von Frey hairs [Chaplan, S. R, Bach, F. W., Pogrel, J. W., Chung, J. M. and Yaksh, T. L. Quantitative assessment of tactile allodynia in the rat paw. […]
The threshold of response of the treated rats was compared to respective vehicle treated rats; two-way ANOVA followed by Bonferroni's test was used for comparison between vehicle and treated groups. […] The delta change value at each time point was also calculated. […]

[2] = Metabolic stability in liver microsomes with NADPH; type: in vitro ADME; details: Wistar, rat, microsomes 0.5 mg/ml, pH 7.4, with NADPH, read-out: intrinsic clearance (CLint)
Method: Metabolic stability of compound 8 (R,R) was also determined in rat wistar liver microsomes in the in the presence of NADPH.
The concentration of the compound 8 (R,R) was 1 μM and microsomes 0.5 mg/ml in phosphate buffer 0.1M pH 7.4 with NADPH.
The degradation of the substrates was measured in duplicate by LC/MS/MS during six time points of incubation.

IC50 (BKB1 receptors): 134 nM | microsomal CLint at 1 μM [2]: 851 µL/min/mg
SMILES: COc1ccccc1CN(C(=O)CC(C)C)[C@@H](C(=O)NC[C@H]1CCCO1)c1ccc(C)cc1 [Compound 8 (R,R), 3-methyl-N-(2-methoxybenzyl)-N-{[(1R)-1-(4-methylphenyl)]-2-oxo-2-[(2R)-(tetrahydrofuran-2-ylmethyl)amino]ethyl}butanamide]
significant reversal of CCI-induced mechanical allodynia ([1]; 30 mg/kg IV, 2 and 3 hours post-dose): not at 2 and 3 hours post-dose | inhibition of CCI-induced mechanical allodynia ([1]; 30 mg/kg IV, 1 hour post-dose): 37% | inhibitory activity on allodynia ([1]; chronic constriction model of pain): strong inhibitory activity on allodynia
